Key:
Assay in all cases: Test B pre-/postemergence plant response
Type in all cases: in vivo
[1] = test system: large crabgrass (Digitaria sanguinalis); conditions: for Crabgrass, Large plant response rating (0 to 100 scale): 62 g ai/ha, 0 is no effect, 13 to 15 days
Procedure, shortened: (§1)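 Greenhouse herbicide screen. Pre- and postemergence (1- to 4-leaf) spray of compound in solvent/surfactant mixture; loam–sand soil for pre, peat/vermiculite medium for post. Visual control rating 0–100 at 13 to 15 days after treatment.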

[2] = test system: giant foxtail (Setaria faberii); conditions: for Foxtail, Giant plant response rating (0 to 100 scale): 62 g ai/ha, 0 is no effect, 13 to 15 days
Procedure, shortened: as §1

corn (Zea mays) = conditions: for Corn plant response rating (0 to 100 scale): 62 g ai/ha, 0 is no effect, 13 to 15 days
Procedure, shortened: as §1

[3] = test system: lambsquarters (Chenopodium album); conditions: for Lambsquarters plant response rating (0 to 100 scale): 62 g ai/ha, 0 is no effect, 13 to 15 days
Procedure, shortened: as §1

[4] = test system: Italian ryegrass (Lolium multiflorum); conditions: for Ryegrass, Italian plant response rating (0 to 100 scale): 62 g ai/ha, 0 is no effect, 13 to 15 days
Procedure, shortened: as §1

[5] = test system: woolly cupgrass (Eriochloa villosa); conditions: for Cupgrass, Woolly plant response rating (0 to 100 scale): 62 g ai/ha, 0 is no effect, 13 to 15 days
Procedure, shortened: as §1

[6] = test system: downy bromegrass (Bromus tectorum); conditions: for Bromegrass, Downy plant response rating (0 to 100 scale): 62 g ai/ha, 0 is no effect, 13 to 15 days
Procedure, shortened: as §1

[7] = test system: bermudagrass (Cynodon dactylon); conditions: for Bermudagrass plant response rating (0 to 100 scale): 62 g ai/ha, 0 is no effect, 13 to 15 days
Procedure, shortened: as §1

[8] = test system: blackgrass (Alopecurus myosuroides); conditions: for Blackgrass plant response rating (0 to 100 scale): 62 g ai/ha, 0 is no effect, 13 to 15 days
Procedure, shortened: as §1

[9] = test system: Surinam grass (Brachiaria decumbens); conditions: for Surinam Grass plant response rating (0 to 100 scale): 62 g ai/ha, 0 is no effect, 13 to 15 days
Procedure, shortened: as §1

[10] = test system: morningglory (Ipomoea coccinea); conditions: for Morningglory plant response rating (0 to 100 scale): 62 g ai/ha, 0 is no effect, 13 to 15 days
Procedure, shortened: as §1

[11] = test system: green foxtail (Setaria viridis); conditions: for Foxtail, Green plant response rating (0 to 100 scale): 62 g ai/ha, 0 is no effect, 13 to 15 days
Procedure, shortened: as §1

[12] = test system: yellow nutsedge (Cyperus esculentus); conditions: for Nutsedge, Yellow plant response rating (0 to 100 scale): 62 g ai/ha, 0 is no effect, 13 to 15 days
Procedure, shortened: as §1

[13] = 31 g ai/ha, postemergence, scale 0 to 100, 0 is no effect, 100 is complete control
[14] = postemergence, 100 is complete control
[15] = Postemergence, 125 g ai/ha, visual rating after 13 to 15 days, scale 0 (no effect) to 100 (complete control)
[16] = Postemergence, 250 g ai/ha, scale 0 to 100 (0 no effect, 100 complete control)

## Cc1ccc(-c2ncc(C(=O)C3=C(O)CCCC3=O)c(=O)n2-c2ccccc2)cc1 [Compound 80]
[1]; [13]
  Plant response rating, Crabgrass, Large: 75
[1]; [14]
  Crabgrass, Large plant response rating (0 to 100 scale): 80
[1]; [15]
  Plant response rating, Crabgrass, Large: 90
[1]; [16]
  Plant response rating, Crabgrass, Large: 95
[2]; [13]
  Plant response rating, Foxtail, Giant: 75
[2]; [14]
  Foxtail, Giant plant response rating (0 to 100 scale): 90
[2]; [15]
  Plant response rating, Foxtail, Giant: 95
[2]; [16]
  Plant response rating, Foxtail, Giant: 95
Corn (Zea mays); [13]
  Plant response rating, Corn: 5
Corn (Zea mays); [14]
  Corn plant response rating (0 to 100 scale): 35
Corn (Zea mays); [15]
  Plant response rating, Corn: 65
Corn (Zea mays); [16]
  Plant response rating, Corn: 65
[3]; [13]
  Plant response rating, Lambsquarters: 95
[3]; [14]
  Lambsquarters plant response rating (0 to 100 scale): 95
[3]; [15]
  Plant response rating, Lambsquarters: 98
[3]; [16]
  Plant response rating, Lambsquarters: 100
[4]; [13]
  Plant response rating, Ryegrass, Italian: 0
[4]; [14]
  Ryegrass, Italian plant response rating (0 to 100 scale): 0
[4]; [15]
  Plant response rating, Ryegrass, Italian: 5
[4]; [16]
  Plant response rating, Ryegrass, Italian: 5
[5]; [13]
  Plant response rating, Cupgrass, Woolly: 65
[5]; [14]
  Cupgrass, Woolly plant response rating (0 to 100 scale): 70
[5]; [15]
  Plant response rating, Cupgrass, Woolly: 70
[5]; [16]
  Plant response rating, Cupgrass, Woolly: 75
[6]; [13]
  Plant response rating, Bromegrass, Downy: 45
[6]; [14]
  Bromegrass, Downy plant response rating (0 to 100 scale): 60
[6]; [15]
  Plant response rating, Bromegrass, Downy: 60
[6]; [16]
  Plant response rating, Bromegrass, Downy: 80
[7]; [13]
  Plant response rating, Bermudagrass: 20
[7]; [14]
  Bermudagrass plant response rating (0 to 100 scale): 40
[7]; [15]
  Plant response rating, Bermudagrass: 45
[7]; [16]
  Plant response rating, Bermudagrass: 55
[8]; [13]
  Plant response rating, Blackgrass: 0
[8]; [14]
  Blackgrass plant response rating (0 to 100 scale): 0
[8]; [15]
  Plant response rating, Blackgrass: 5
[8]; [16]
  Plant response rating, Blackgrass: 10
[9]; [13]
  Plant response rating, Surinam Grass: 45
[9]; [14]
  Surinam Grass plant response rating (0 to 100 scale): 45
[9]; [15]
  Plant response rating, Surinam Grass: 60
[9]; [16]
  Plant response rating, Surinam Grass: 65
[10]; [13]
  Plant response rating, Morningglory: 85
[10]; [14]
  Morningglory plant response rating (0 to 100 scale): 100
[10]; [15]
  Plant response rating, Morningglory: 100
[10]; [16]
  Plant response rating, Morningglory: 100
[11]; [13]
  Plant response rating, Foxtail, Green: 90
[11]; [14]
  Foxtail, Green plant response rating (0 to 100 scale): 95
[11]; [15]
  Plant response rating, Foxtail, Green: 95
[11]; [16]
  Plant response rating, Foxtail, Green: 98
[12]; [13]
  Plant response rating, Nutsedge, Yellow: 10
[12]; [14]
  Nutsedge, Yellow plant response rating (0 to 100 scale): 15
[12]; [15]
  Plant response rating, Nutsedge, Yellow: 55
[12]; [16]
  Plant response rating, Nutsedge, Yellow: 75

## Cc1ccccc1-c1ncc(C(=O)C2=C(O)CCCC2=O)c(=O)n1-c1ccccc1 [Compound 82]
[1]; [13]
  Plant response rating, Crabgrass, Large: 70
[1]; [14]
  Crabgrass, Large plant response rating (0 to 100 scale): 75
[1]; [15]
  Plant response rating, Crabgrass, Large: 80
[1]; [16]
  Plant response rating, Crabgrass, Large: 90
[2]; [13]
  Plant response rating, Foxtail, Giant: 75
[2]; [14]
  Foxtail, Giant plant response rating (0 to 100 scale): 80
[2]; [15]
  Plant response rating, Foxtail, Giant: 95
[2]; [16]
  Plant response rating, Foxtail, Giant: 95
Corn (Zea mays); [13]
  Plant response rating, Corn: 0
Corn (Zea mays); [14]
  Corn plant response rating (0 to 100 scale): 5
Corn (Zea mays); [15]
  Plant response rating, Corn: 5
Corn (Zea mays); [16]
  Plant response rating, Corn: 15
[3]; [13]
  Plant response rating, Lambsquarters: 80
[3]; [14]
  Lambsquarters plant response rating (0 to 100 scale): 95
[3]; [15]
  Plant response rating, Lambsquarters: 100
[3]; [16]
  Plant response rating, Lambsquarters: 100
[4]; [13]
  Plant response rating, Ryegrass, Italian: 0
[4]; [14]
  Ryegrass, Italian plant response rating (0 to 100 scale): 0
[4]; [15]
  Plant response rating, Ryegrass, Italian: 5
[4]; [16]
  Plant response rating, Ryegrass, Italian: 10
[5]; [13]
  Plant response rating, Cupgrass, Woolly: 55
[5]; [14]
  Cupgrass, Woolly plant response rating (0 to 100 scale): 55
[5]; [15]
  Plant response rating, Cupgrass, Woolly: 65
[5]; [16]
  Plant response rating, Cupgrass, Woolly: 75
[6]; [13]
  Plant response rating, Bromegrass, Downy: 0
[6]; [14]
  Bromegrass, Downy plant response rating (0 to 100 scale): 0
[6]; [15]
  Plant response rating, Bromegrass, Downy: 5
[6]; [16]
  Plant response rating, Bromegrass, Downy: 30
[7]; [13]
  Plant response rating, Bermudagrass: 80
[7]; [14]
  Bermudagrass plant response rating (0 to 100 scale): 85
[7]; [15]
  Plant response rating, Bermudagrass: 85
[7]; [16]
  Plant response rating, Bermudagrass: 95
[8]; [13]
  Plant response rating, Blackgrass: 0
[8]; [14]
  Blackgrass plant response rating (0 to 100 scale): 0
[8]; [15]
  Plant response rating, Blackgrass: 5
[8]; [16]
  Plant response rating, Blackgrass: 15
[9]; [13]
  Plant response rating, Surinam Grass: 65
[9]; [14]
  Surinam Grass plant response rating (0 to 100 scale): 65
[9]; [15]
  Plant response rating, Surinam Grass: 75
[9]; [16]
  Plant response rating, Surinam Grass: 80
[10]; [13]
  Plant response rating, Morningglory: 65
[10]; [14]
  Morningglory plant response rating (0 to 100 scale): 100
[10]; [15]
  Plant response rating, Morningglory: 100
[10]; [16]
  Plant response rating, Morningglory: 100
[11]; [13]
  Plant response rating, Foxtail, Green: 60
[11]; [14]
  Foxtail, Green plant response rating (0 to 100 scale): 60
[11]; [15]
  Plant response rating, Foxtail, Green: 85
[11]; [16]
  Plant response rating, Foxtail, Green: 90
[12]; [13]
  Plant response rating, Nutsedge, Yellow: 10
[12]; [14]
  Nutsedge, Yellow plant response rating (0 to 100 scale): 15
[12]; [15]
  Plant response rating, Nutsedge, Yellow: 45
[12]; [16]
  Plant response rating, Nutsedge, Yellow: 55

## CC(C)CC(=O)OC1=C(C(=O)c2cnc(-c3ccccc3)n(-c3ccccc3)c2=O)C(=O)CCC1 [Compound 83]
[1]; [13]
  Plant response rating, Crabgrass, Large: 85
[1]; [14]
  Crabgrass, Large plant response rating (0 to 100 scale): 85
[1]; [15]
  Plant response rating, Crabgrass, Large: 95
[1]; [16]
  Plant response rating, Crabgrass, Large: 98
[2]; [13]
  Plant response rating, Foxtail, Giant: 80
[2]; [14]
  Foxtail, Giant plant response rating (0 to 100 scale): 95
[2]; [16]
  Plant response rating, Foxtail, Giant: 98
Corn (Zea mays); [13]
  Plant response rating, Corn: 0
Corn (Zea mays); [14]
  Corn plant response rating (0 to 100 scale): 5
Corn (Zea mays); [15]
  Plant response rating, Corn: 15
Corn (Zea mays); [16]
  Plant response rating, Corn: 25
[3]; [13]
  Plant response rating, Lambsquarters: 95
[3]; [14]
  Lambsquarters plant response rating (0 to 100 scale): 98
[3]; [16]
  Plant response rating, Lambsquarters: 100
[4]; [13]
  Plant response rating, Ryegrass, Italian: 0
[4]; [14]
  Ryegrass, Italian plant response rating (0 to 100 scale): 0
[4]; [16]
  Plant response rating, Ryegrass, Italian: 5
[5]; [13]
  Plant response rating, Cupgrass, Woolly: 70
[5]; [14]
  Cupgrass, Woolly plant response rating (0 to 100 scale): 85
[5]; [15]
  Plant response rating, Cupgrass, Woolly: 90
[5]; [16]
  Plant response rating, Cupgrass, Woolly: 95
[6]; [13]
  Plant response rating, Bromegrass, Downy: 40
[6]; [14]
  Bromegrass, Downy plant response rating (0 to 100 scale): 45
[6]; [15]
  Plant response rating, Bromegrass, Downy: 45
[6]; [16]
  Plant response rating, Bromegrass, Downy: 60
[7]; [13]
  Plant response rating, Bermudagrass: 75
[7]; [14]
  Bermudagrass plant response rating (0 to 100 scale): 75
[7]; [15]
  Plant response rating, Bermudagrass: 85
[7]; [16]
  Plant response rating, Bermudagrass: 90
[8]; [13]
  Plant response rating, Blackgrass: 0
[8]; [14]
  Blackgrass plant response rating (0 to 100 scale): 0
[8]; [15]
  Plant response rating, Blackgrass: 0
[8]; [16]
  Plant response rating, Blackgrass: 0
[9]; [13]
  Plant response rating, Surinam Grass: 75
[9]; [14]
  Surinam Grass plant response rating (0 to 100 scale): 75
[9]; [16]
  Plant response rating, Surinam Grass: 90
[10]; [13]
  Plant response rating, Morningglory: 70
[10]; [14]
  Morningglory plant response rating (0 to 100 scale): 75
[10]; [16]
  Plant response rating, Morningglory: 100
[11]; [13]
  Plant response rating, Foxtail, Green: 90
[11]; [14]
  Foxtail, Green plant response rating (0 to 100 scale): 95
[11]; [16]
  Plant response rating, Foxtail, Green: 98
[12]; [13]
  Plant response rating, Nutsedge, Yellow: 10
[12]; [14]
  Nutsedge, Yellow plant response rating (0 to 100 scale): 20
[12]; [16]
  Plant response rating, Nutsedge, Yellow: 85
